In publication PMC10154249, “Unique progerin C-terminal peptide ameliorates Hutchinson–Gilford progeria syndrome phenotype by rescuing BUBR1” (Nature Aging, 2023):
Ends that are not written are not given here.

Experiments:
[1] = in vivo; cited from earlier work
Source text: (§1) At present, clinical drugs for HGPS are very rare except for Zokinvy (lonafarnib), which has been approved by the United States (US) Food and Drug Administration (FDA). […] Recently, some gene therapies for HGPS treatment have been developed. The clustered regularly interspaced short palindromic repeat–adeno-associated virus 9 system is used to reduce the expression of progerin and the adenine base editor–adeno-ass ...

HEK-293T cells = experiment: Immunofluorescence localization of Flag-progerin-C in HEK-293T cells; assay type: cell-based; settings: Flag-progerin-C expressed in HEK-293T
Description: (§2) Immunofluorescence was performed as described previously. Cells were plated on cover slips in 12-well plates, left overnight before the treatment. Cells were fixed in 1% formaldehyde in culture medium for 10 min at 37 °C and permeabilized with 0.2% Triton X-100 in PBS for 10 min at room temperature. Cells were washed twice in PBS and blocked for 1 h with 5% BSA in PBS and then incubated with primary antibodies at 4 °C overnight, washed three times in PBS and incubated with secondary antibodies for 1 h at room temperature. Cell nuclei were counterstained with a 500 nM concentration of 4,6-diamidino-2-phenylindole (DAPI) (Sigma). Images were acquired by a fluorescence microscope (OLYMPUS FV-1000, Carl Zeiss LSM880 or Leica DMi8) and analyzed with software NIS-Elements AR v.5.0.1 (Nikon), FLUOVIEW v.4.2b (OLYMPUS), ZEN v.2.3 SP1 (Carl Zeiss) and Leica Application Suite X v.3.6.0.24 (Leica). Cells were quantified by investigators who were blinded to the identity of the analyzed cell.

[2] = test system: progerin–BUBR1 interaction; experiment: CoIP of progerin and BUBR1 in HEK-293T cells; assay type: cell-based; settings: HEK-293T cotransfected with Flag-progerin-C 5, 10, 15 μg and HA-progerin
Description: Detailed descriptions of CoIP were described previously[55],[56]. Cells were harvested and washed three times in cold PBS, then lysed in CoIP buffer (25 mM Tris-HCl (pH 7.5), 150 mM KCl, 5 mM EDTA, and 0.5% NP-40) plus protease inhibitor cocktail tablet (Roche). Incubate on ice and shock lysates on the vortex shaker 15 times for 30 s each. Microcentrifuge in 12,000g for 15 min at 4 °C, collect the supernatant, and incubate with 3 μg primary antibodies with gentle shaking overnight at 4 °C, followed by adding 20–40 μl Pure Proteome Protein A/G Mix Magnetic Beads (Millipore, catalog no. […]02) for 3 h. Wash the beads three times with 1 ml CoIP buffer for 8 min each, resuspend in 50 μl 1× loading buffer, and incubate at 100 °C for 8 min. Throw beads away and analyze by immunoblotting.

HGADFN003 cells [3] = experiment: SA-β-gal staining of HGADFN003 cells; assay type: cell-based, human; settings: for SA-β-gal positive cells: HGADFN003, Extended Data Fig. 10c
Description: SA-β-gal staining was performed as previously described. Cells were fixed in 0.5% glutaraldehyde for 15 min at room temperature, washed three times with PBS (pH 6.0) containing 1 mM MgCl2 and exposed overnight 37 °C to containing 1 mg ml^–1 5-bromo-4-chloro-3-indolyl-β-D-galactopyranoside (MCE, catalog no. HY-15934), 0.12 mM potassium ferrocyanide (Sigma, catalog no. P3289), 0.12 mM potassium ferricyanide (Sigma, catalog no. P8131) and 1 mM MgCl2 PBS buffer (pH 6.0). Cells were washed three times with H2O and observed under a microscope (OLYMPUS CKX53). SA-β-gal positive cells were quantified by investigators who were blinded to the identity of the analyzed cell.

HGADFN003 cells [4] = experiment: Ki67 immunofluorescence of HGADFN003 cells; assay type: cell-based, human; settings: for Ki67 positive cells: HGADFN003, Extended Data Fig. 10e
Description: as §2

[5] = test system: BUBR1 / CyclinA2 in HGADFN003 cells; experiment: Western blot of BUBR1 and CyclinA2 in HGADFN003 cells; assay type: cell-based, human; settings: HGADFN003
Description: Western blot was performed as previously described. Cells were lysed in 1× Laemmli sample buffer after washing twice in cold PBS without calcium and magnesium. Protein concentrations were determined using the bicinchoninic acid (BCA) protein assay. Protein lysates were subjected to SDS–PAGE, transferred to 0.45-μm pore size hydrophobic PVDF transfer membrane (Merck Millipore), detected with the appropriate primary antibodies coupled with horseradish peroxidase-conjugated corresponding secondary antibodies, and visualized using enhanced chemiluminescence ECL reagent (GE Healthcare). The Tanon 5500 high-definition low-illumination CCD system (Tanon FLI Capture v.1.02) was used to capture chemiluminescent signals.

[6] = test system: BUBR1–progerin interaction; experiment: Immunofluorescence of BUBR1 in IMR90 cells with FTI or UPCP; assay type: cell-based, human
Description: as §2

HGPS cells = settings: cited from earlier work
Source text: as §1

For NC(=O)N1CCC(CC(=O)N2CCC([C@H]3c4ncc(Br)cc4CCc4cc(Cl)cc(Br)c43)CC2)CC1 [Zokinvy (lonafarnib), lonafarnib], the adverse reactions [1] is given as “diarrhea and vomiting”.

With “progerin-C: progerin C-terminal region (aa residues 565–614), expressed in cells (HHGSHCSSSGDPAEYNLRSRTVLCGTCGQPADKASASGSGAQSPQNCSIM; cysteine pairing not given here; also: 3×Flag tag, end not given here)” the cellular location (HEK-293T cells) was “distributed throughout the cell” and the “competition with progerin to bind BUBR1” value [2] was “competes with progerin to bind BUBR1”.

In the case of COC(=O)[C@H](CCSC)NC(=O)c1ccc(NC[C@@H](N)CS)cc1-c1ccccc1 [FTI-277, reference compound], the “SA-β-gal activity (FTI-277/UPCP comparison, words)” value (HGADFN003 cells [3]; HGADFN003) is reported as “decreased the activity of SA-β-gal”, the SA-β-gal positive cells (HGADFN003 cells [3]; replicate 1) is reported as 20% and the SA-β-gal positive cells (HGADFN003 cells [3]; replicate 2) is reported as 15%. For the same molecule, the SA-β-gal positive cells (HGADFN003 cells [3]; replicate 3) was 13%, the “Ki67 expression (FTI-277/UPCP comparison, words)” value (HGADFN003 cells [4]; HGADFN003) was “increasing expression of BUBR1, CyclinA2 and Ki67” and the Ki67 positive cells (HGADFN003 cells [4]; replicate 1) was 57%. For the same molecule, the Ki67 positive cells (HGADFN003 cells [4]; replicate 2) was 61%, the Ki67 positive cells (HGADFN003 cells [4]; replicate 3) was 75% and the “BUBR1 expression (FTI-277/UPCP comparison, words)” value [5] was “increasing expression of BUBR1”. The “CyclinA2 expression (FTI-277/UPCP comparison, words)” value [5] was “increasing expression of BUBR1, CyclinA2” and the “block of the interaction of BUBR1 and progerin” value [6] was “failed to block the interaction of BUBR1 and progerin”.

For neuropeptide Y, the “cellular HGPS aging phenotype” value (HGPS cells) is given as “delays the cellular HGPS aging phenotype by stimulating autophagy and decreasing progerin accumulation”.
